Measured values reported in patent US7767666B2, “Butyl and butynyl benzyl amine compounds” (Janssen Pharmaceutica NV, priority 2006, dated 2010).

Key:
human H3 receptor [1] = target: T1, human H3 receptor (Homo sapiens, UniProt Q9Y5N1); test: H3 receptor binding; settings: cloned human H3 receptor stably expressed in SK-N-MC cells
T1 construct: expressed in transfected cells

Rat SERT = target: T2, Rat SERT (Rattus norvegicus, UniProt P31652); test: Rat brain SERT [3H]-citalopram binding; settings: rat brain membranes, 0.6 nM [3H]-Citalopram, 60 min at 25° C.
T2 construct: A rat brain without cerebellum (Zivic Laboratories, Inc.—Pittsburgh, Pa.) was homogenized; tissue Zivic Laboratories, Inc; host or cells: rat brain without cerebellum, membrane preparation
Description: The supernatant was removed and re-centrifuged at 15,000 rpm for 30 min. […] Membranes were incubated with 0.6 nM [^3H]-Citalopram plus/minus test compounds for 60 min at 25° C. and harvested by rapid filtration over GF/C glass fiber filters (pretreated with 0.3% polyethylenimine) followed by four washes with ice-cold buffer.

human SERT = target: T3, human SERT (Homo sapiens, UniProt P31645); test: Human SERT 3H-citalopram binding; settings: HEK293 membranes expressing the human SERT, rt 1 h
T3 construct: expressed in transfected cells; host or cells: HEK293 membranes
Description: Homogenized HEK293 (Human Embryonic Kidney) membranes expressing the human SERT were incubated with ^3H-citalopram (SERT) at rt for 1 h in 50 mM Tris, 120 mM NaCl, 5 mM KCl (pH 7.4). […] The membranes were washed and the radioactivity was counted as above.

human H3 receptor [2] = target: T1, human H3 receptor; test: Cyclic AMP accumulation (β-galactosidase reporter); assay type: cell-based; settings: for pA2: SK-N-MC cells expressing human H3 receptor and reporter, histamine agonist, forskolin 5 μM, Schild regression of pEC50 values
Description: Sublines of SK—N-MC cells were created that expressed a reporter construct and the human H3 receptor. The reporter gene (β-galactosidase) is under the control of multiple cyclic AMP responsive elements. In 96-well plates, histamine was added directly to the cell media followed 5 min later by an addition of forskolin (5 μM final concentration). When appropriate, antagonists were added 10 min prior to agonist addition. After a 6-h incubation at 37° C., the media was aspirated and the cells washed with 200 μL of phosphate-buffered saline followed by a second aspiration. Cells were lysed with 25 μL 0.1× assay buffer (10 mM Na-phosphate, pH 8, 0.2 mM MgSO4, 0.01 mM MnCl2) and incubated at rt for 10 min. […] Color was developed using 25 μL of 1 mg/mL substrate solution (chlorophenolred β-D galactopyranoside; Roche Molecular Biochemicals, Indianapolis, Ind.).

T3 sequence (P31645 whole entry): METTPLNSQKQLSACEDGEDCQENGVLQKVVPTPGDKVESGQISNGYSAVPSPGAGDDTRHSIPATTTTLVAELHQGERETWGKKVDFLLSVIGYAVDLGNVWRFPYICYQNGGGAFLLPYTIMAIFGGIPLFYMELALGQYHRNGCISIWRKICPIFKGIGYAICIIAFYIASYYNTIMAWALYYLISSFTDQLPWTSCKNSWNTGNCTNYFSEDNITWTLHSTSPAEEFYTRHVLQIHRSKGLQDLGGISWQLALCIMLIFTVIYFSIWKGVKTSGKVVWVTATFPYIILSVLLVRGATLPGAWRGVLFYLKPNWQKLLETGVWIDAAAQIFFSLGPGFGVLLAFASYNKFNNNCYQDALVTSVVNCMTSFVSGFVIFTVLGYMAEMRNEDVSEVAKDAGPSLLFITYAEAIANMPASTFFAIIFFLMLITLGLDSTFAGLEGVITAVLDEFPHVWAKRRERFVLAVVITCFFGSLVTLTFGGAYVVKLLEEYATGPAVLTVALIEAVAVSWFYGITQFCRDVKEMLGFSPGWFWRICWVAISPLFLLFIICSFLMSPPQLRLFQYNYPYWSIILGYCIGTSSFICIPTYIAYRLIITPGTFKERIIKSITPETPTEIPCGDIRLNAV
T2 sequence (P31652 whole entry): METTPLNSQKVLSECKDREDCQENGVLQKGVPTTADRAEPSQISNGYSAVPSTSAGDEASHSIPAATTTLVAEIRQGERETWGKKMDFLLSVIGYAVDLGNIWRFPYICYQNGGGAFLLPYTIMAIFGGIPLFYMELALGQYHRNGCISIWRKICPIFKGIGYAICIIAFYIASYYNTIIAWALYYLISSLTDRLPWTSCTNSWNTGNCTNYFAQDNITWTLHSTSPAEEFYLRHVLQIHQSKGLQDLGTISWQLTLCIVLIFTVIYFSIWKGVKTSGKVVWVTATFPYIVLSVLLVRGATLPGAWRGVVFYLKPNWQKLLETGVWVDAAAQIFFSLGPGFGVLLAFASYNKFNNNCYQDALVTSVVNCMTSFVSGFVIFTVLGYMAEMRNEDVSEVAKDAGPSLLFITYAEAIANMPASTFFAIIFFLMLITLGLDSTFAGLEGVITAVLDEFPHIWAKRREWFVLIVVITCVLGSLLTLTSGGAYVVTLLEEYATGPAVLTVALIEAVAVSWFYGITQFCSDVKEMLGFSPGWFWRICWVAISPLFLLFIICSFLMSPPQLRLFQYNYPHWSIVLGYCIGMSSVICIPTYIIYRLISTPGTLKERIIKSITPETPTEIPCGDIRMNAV
T1 sequence (Q9Y5N1 whole entry): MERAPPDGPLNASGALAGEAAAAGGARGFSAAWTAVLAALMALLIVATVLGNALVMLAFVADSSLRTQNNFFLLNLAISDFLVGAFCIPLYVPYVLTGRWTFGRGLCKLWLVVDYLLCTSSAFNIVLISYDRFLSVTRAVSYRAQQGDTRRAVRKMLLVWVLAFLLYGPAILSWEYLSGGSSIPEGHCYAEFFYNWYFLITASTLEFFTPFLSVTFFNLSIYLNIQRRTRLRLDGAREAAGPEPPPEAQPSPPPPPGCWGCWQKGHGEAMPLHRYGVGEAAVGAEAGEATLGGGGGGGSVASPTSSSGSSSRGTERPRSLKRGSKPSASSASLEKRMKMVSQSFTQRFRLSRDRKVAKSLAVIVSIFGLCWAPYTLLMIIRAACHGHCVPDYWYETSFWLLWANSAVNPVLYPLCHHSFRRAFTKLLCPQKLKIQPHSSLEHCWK

| SMILES | Ki (human H3 receptor [1]) | Ki (Rat SERT) | Ki (human SERT) | pA2 (human H3 receptor [2]) | Kb (human H3 receptor [2]; read-out: pA2 (converted)) |
| --- | --- | --- | --- | --- | --- |
| CNCc1cc(C#CCCN2CCOCC2)ccc1Oc1ccc(Cl)c(Cl)c1 [Example 1, [2-(3,4-Dichloro-phenoxy)-5-(4-morpholin-4-yl-but-1-ynyl)-benzyl]-methyl-amine] | 11 nM | 2.4 nM | 1.8 nM | – | – |
| CNCc1cc(C#CCCN2CCOCC2)ccc1Oc1ccccc1 [Example 6, Methyl-[5-(4-morpholin-4-yl-but-1-ynyl)-2-phenoxy-benzyl]-amine] | – | 11 nM | 30 nM | – | – |
| CNCc1cc(C#CCCN2CCOCC2)ccc1Oc1ccc(C(F)(F)F)cc1 [Example 7, Methyl-[5-(4-morpholin-4-yl-but-1-ynyl)-2-(4-trifluoromethyl-phenoxy)-benzyl]-amine] | 7.3 nM | 2 nM | 2.7 nM | 7.90 | – |
| CNCc1cc(C#CCCN2CCOCC2)ccc1Oc1cccc(F)c1 [Example 8, [2-(3-Fluoro-phenoxy)-5-(4-morpholin-4-yl-but-1-ynyl)-benzyl]-methyl-amine] | 3 nM | 10 nM | 24 nM | 8.45 | – |
| CNCc1cc(C#CCCN2CCSCC2)ccc1Oc1ccc(SC)cc1 [Example 9, Methyl-[2-(4-methylsulfanyl-phenoxy)-5-(4-thiomorpholin-4-yl-but-1-ynyl)-benzyl]-amine] | 5.4 nM | 0.9 nM | 2.5 nM | – | – |
| CNCc1cc(C#CCCN2CCN(C(C)C)CC2)ccc1Oc1ccc(SC)cc1 [Example 10, [5-[4-(4-Isopropyl-piperazin-1-yl)-but-1-ynyl]-2-(4-methylsulfanyl-phenoxy)-benzyl]-methyl-amine] | 31 nM | 0.5 nM | 13 nM | – | – |
| CNCc1cc(C#CCCN2CCC(F)CC2)ccc1Oc1ccc(SC)cc1 [Example 11, [5-[4-(4-Fluoro-piperidin-1-yl)-but-1-ynyl]-2-(4-methylsulfanyl-phenoxy)-benzyl]-methyl-amine] | 6 nM | 0.6 nM | 0.9 nM | 8.12 | – |
| CNCc1cc(C#CCCN2CCOCC2)ccc1Oc1cccc(Cl)c1 [Example 12, [2-(3-Chloro-phenoxy)-5-(4-morpholin-4-yl-but-1-ynyl)-benzyl]-methyl-amine] | 3 nM | 3 nM | 7.3 nM | 8.58 | – |
| CNCc1cc(C#CCCN2CCN(C3CC3)CC2)ccc1Oc1ccc(SC)cc1 [Example 13, [5-[4-(4-Cyclopropyl-piperazin-1-yl)-but-1-ynyl]-2-(4-methylsulfanyl-phenoxy)-benzyl]-methyl-amine] | 52 nM | 2 nM | 3.5 nM | – | – |
| CNCc1cc(C#CCCNC2CC2)ccc1Oc1ccc(SC)cc1 [Example 14, Cyclopropyl-{4-[3-methylaminomethyl-4-(4-methylsulfanyl-phenoxy)-phenyl]-but-3-ynyl}-amine] | 17 nM | 0.3 nM | 12 nM | – | – |
| CNCc1cc(C#CCCNC2CC2)ccc1Oc1ccc(Cl)c(Cl)c1 [Example 15, Cyclopropyl-{4-[4-(3,4-dichloro-phenoxy)-3-methylaminomethyl-phenyl]-but-3-ynyl}-amine] | 17 nM | 1.8 nM | 1.4 nM | – | – |
| CNCc1cc(C#CCCN(C)C2CC2)ccc1Oc1ccc(SC)cc1 [Example 16, Cyclopropyl-methyl-{4-[3-methylaminomethyl-4-(4-methylsulfanyl-phenoxy)-phenyl]-but-3-ynyl}-amine] | 6.1 nM | 1.3 nM | 1.1 nM | 9.10 | – |
| CNCc1cc(C#CCCN(C2CC2)C2CC2)ccc1Oc1ccc(Cl)c(Cl)c1 [Example 17, N,N-Dicyclopropyl-{4-[4-(3,4-dichloro-phenoxy)-3-methylaminomethyl-phenyl]-but-3-ynyl}-amine] | 100 nM | 40 nM | – | – | – |
| CNCc1cc(C#CCCN(C)C2CC2)ccc1Oc1ccc(Cl)c(Cl)c1 [Example 18, Cyclopropyl-{4-[4-(3,4-dichloro-phenoxy)-3-methylaminomethyl-phenyl]-but-3-ynyl}-methyl-amine] | 9.7 nM | 6.4 nM | 5.9 nM | – | – |
| CNCc1cc(C#CCCN2CCNC(=O)C2)ccc1Oc1ccc(SC)cc1 [Example 19, 4-{4-[3-Methylaminomethyl-4-(4-methylsulfanyl-phenoxy)-phenyl]-but-3-ynyl}-piperazin-2-one] | 864 nM | 0.4 nM | 1.6 nM | – | – |
| CNCc1cc(C#CCCN2CCCN(C(C)C)CC2)ccc1Oc1ccc(SC)cc1 [Example 20, [5-[4-(4-Isopropyl-[1,4]diazepan-1-yl)-but-1-ynyl]-2-(4-methylsulfanyl-phenoxy)-benzyl]-methyl-amine] | 93 nM | 0.7 nM | 3.6 nM | – | – |
| CNCc1cc(C#CCCN2CCOCC2)ccc1Oc1cccnc1 [Example 21, Methyl-[5-(4-morpholin-4-yl-but-1-ynyl)-2-(pyridine-3-yloxy)-benzyl]-amine] | 2 nM | 7 nM | – | – | – |
| Clc1ccc(Oc2ccc(C#CCCN3CCOCC3)cc2CNC2CC2)cc1 [Example 22, [2-(4-Chloro-phenoxy)-5-(4-morpholin-4-yl-but-1-ynyl)-benzyl]-cyclopropyl-amine] | 10 nM | 5 nM | – | – | – |
| CNCc1cc(C#CCCN2CCOCC2)ccc1Oc1ccc(C)nc1 [Example 24, Methyl-[2-(6-methyl-pyridin-3-yloxy)-5-(4-morpholin-4-yl-but-1-ynyl)-benzyl]-amine] | 4 nM | 1.9 nM | 5 nM | – | – |
| CNCc1cc(C#CCCN2CCN(C(C)C)C(=O)C2)ccc1Oc1ccc(SC)cc1 [Example 25, 1-Isopropyl-4-{4-[3-methylaminomethyl-4-(4-methylsulfanyl-phenoxy)-phenyl]-but-3-ynyl}-piperazin-2-one] | 1870 nM | 1 nM | 1.2 nM | – | – |
| CNCc1cc(C#CCCN2CCSCC2)ccc1Oc1ccc(Cl)c(Cl)c1 [Example 26, [2-(3,4-Dichloro-phenoxy)-5-(4-thiomorpholin-4-yl-but-1-ynyl)-benzyl]-methyl-amine] | 13 nM | 5.7 nM | 6.7 nM | – | – |
| CNCc1cc(C#CCCN2CCC(F)CC2)ccc1Oc1ccc(Cl)c(Cl)c1 [Example 29, {2-(3,4-Dichloro-phenoxy)-5-[4-(4-fluoro-piperidin-1-yl)-but-1-ynyl]-benzyl}-methyl-amine] | 14 nM | 2.1 nM | 27 nM | – | – |
| CNCc1cc(C#CCCN2CCOCC2)ccc1Oc1ccccn1 [Example 30, Methyl-[5-(4-morpholin-4-yl-but-1-ynyl)-2-(pyridine-2-yloxy)-benzyl]-amine] | 6 nM | 200 nM | – | – | 3.16 nM |
| CNCc1cc(C#CCCN2CCOCC2)ccc1Sc1ccc(Cl)cc1 [Example 31, [2-(4-Chloro-phenylsulfanyl)-5-(4-morpholin-4-yl-but-1-ynyl)-benzyl]-methyl-amine] | 32 nM | 1 nM | – | – | – |
| CNCc1cc(CCCCN2CCN(C3CC3)CC2)ccc1Oc1ccc(SC)cc1 [Example 32, [5-[4-(4-Cyclopropyl-piperazin-1-yl)-butyl]-2-(4-methylsulfanyl-phenoxy)-benzyl]-methyl-amine] | 4.7 nM | 0.6 nM | 2 nM | – | – |
| CNCc1cc(CCCCN2CCN(C(C)C)CC2)ccc1Oc1ccc(SC)cc1 [Example 33, [5-[4-(4-Isopropyl-piperazin-1-yl)-butyl]-2-(4-methylsulfanyl-phenoxy)-benzyl]-methyl-amine] | 5.2 nM | 0.4 nM | 1.4 nM | – | – |
| CNCc1cc(CCCCN2CCSCC2)ccc1Oc1ccc(SC)cc1 [Example 34, Methyl-[2-(4-methylsulfanyl-phenoxy)-5-(4-thiomorpholin-4-yl-butyl)-benzyl]-amine] | 9.7 nM | 0.9 nM | 1.9 nM | – | – |
| CSc1ccc(Oc2ccc(C#CCCN3CCCCC3)cc2CN(C)C(=O)OC(C)(C)C)cc1 [Example 35, Methyl-[2-(4-methylsulfanyl-phenoxy)-5-(4-piperidin-1-yl-but-1-ynyl)-benzyl]-carbamic acid tert-butyl ester] | 46 nM | 24 nM | – | – | – |
| CNCc1cc(C#CCCN2CCOCC2)ccc1Sc1cc(C(F)(F)F)ccn1 [Example 36, Methyl-[5-(4-morpholin-4-yl-but-1-ynyl)-2-(4-trifluoromethyl-pyridin-2-ylsulfanyl)-benzyl]-amine] | 190 nM | 32 nM | – | – | – |
| CNCc1ccc(C#CCCN2CCOCC2)cc1Oc1ccc(SC)cc1 [Example 37, Methyl-[2-(4-methylsulfanyl-phenoxy)-4-(4-morpholin-4-yl-but-1-ynyl)-benzyl]-amine] | 423 nM | 1.8 nM | 3.4 nM | – | – |
